ChEMBL document CHEMBL3217717, “Synthesis and antiproliferative activity of novel erythromycin derivatives” (Medchemcomm, 2010)

Legend:
Assay type in all cases: functional, cell-based
[1] = system: KB; experiment: Cytotoxicity against human KB cells assessed as growth inhibition after 48 hrs by MTT assay
[2] = Cytotoxicity against human HT1080 cells assessed as growth inhibition after 48 hrs by MTT assay; conditions: HT-1080, 48 h
[3] = Cytotoxicity against human SGC7901 cells assessed as growth inhibition after 48 hrs by MTT assay; conditions: SGC-7901, 48 h

SMILES | IC50 [1] [µM] | IC50 [2] [µM] | IC50 [3] [µM]
CC[C@H]1OC(=O)[C@H](C)[C@@H](O[C@H]2C[C@@](C)(OC)[C@@H](O)[C@H](C)O2)[C@H](C)[C@@H](O[C@@H]2O[C@H](C)C[C@H](N(C)CC(=O)N(C)[C@H]3C[C@@H](C)O[C@@H](O[C@@H]4[C@@H](C)[C@H](O[C@H]5C[C@@](C)(OC)[C@@H](O)[C@H](C)O5)[C@@H](C)C(=O)O[C@H](CC)[C@@](C)(O)[C@H](O)[C@@H](C)C(=O)[C@H](C)C[C@@]4(C)O)[C@@H]3O)[C@H]2O)[C@](C)(O)C[C@@H](C)C(=O)[C@H](C)[C@@H](O)[C@]1(C)O | > 100 | > 100 | 26.5
CC[C@H]1OC(=O)[C@H](C)[C@@H](O[C@H]2C[C@@](C)(OC)[C@@H](O)[C@H](C)O2)[C@H](C)[C@@H](O[C@@H]2O[C@H](C)C[C@H](N(C)CCN(C)[C@H]3C[C@@H](C)O[C@@H](O[C@@H]4[C@@H](C)[C@H](O[C@H]5C[C@@](C)(OC)[C@@H](O)[C@H](C)O5)[C@@H](C)C(=O)O[C@H](CC)[C@@](C)(O)[C@H](O)[C@@H](C)/C(=N\OCc5ccccc5)[C@H](C)C[C@@]4(C)O)[C@@H]3O)[C@H]2O)[C@](C)(O)C[C@@H](C)/C(=N/OCOCCOC)[C@H](C)[C@@H](O)[C@]1(C)O | > 100 | > 100 | > 100
CC[C@H]1OC(=O)[C@H](C)[C@@H](O[C@H]2C[C@@](C)(OC)[C@@H](O)[C@H](C)O2)[C@H](C)[C@@H](O[C@@H]2O[C@H](C)C[C@H](N(C)C(=O)CN(C)[C@H]3C[C@@H](C)O[C@@H](O[C@@H]4[C@@H](C)[C@H](O[C@H]5C[C@@](C)(OC)[C@@H](O)[C@H](C)O5)[C@@H](C)C(=O)O[C@H](CC)[C@@](C)(O)[C@H](O)[C@@H](C)/C(=N\OCOCCOC)[C@H](C)C[C@@]4(C)O)[C@@H]3O)[C@H]2O)[C@](C)(OC)C[C@@H](C)C(=O)[C@H](C)[C@@H](O)[C@]1(C)O | > 100 | > 100 | > 100
CC[C@H]1OC(=O)[C@H](C)[C@@H](O[C@H]2C[C@@](C)(OC)[C@@H](O)[C@H](C)O2)[C@H](C)[C@@H](O[C@@H]2O[C@H](C)C[C@H](N(C)CCN(C)[C@H]3C[C@@H](C)O[C@@H](O[C@@H]4[C@@H](C)[C@H](O[C@H]5C[C@@](C)(OC)[C@@H](O)[C@H](C)O5)[C@@H](C)C(=O)O[C@H](CC)[C@@](C)(O)[C@H](O)[C@@H](C)C(=O)[C@H](C)C[C@@]4(C)OC)[C@@H]3O)[C@H]2O)[C@](C)(O)C[C@@H](C)[C@H](O)[C@H](C)[C@@H](O)[C@]1(C)O | 28.5 | 20.4 | 39.8
CC[C@H]1OC(=O)[C@H](C)[C@@H](O[C@H]2C[C@@](C)(OC)[C@@H](O)[C@H](C)O2)[C@H](C)[C@@H](O[C@@H]2O[C@H](C)C[C@H](N(C)CC(=O)N(C)[C@H]3C[C@@H](C)O[C@@H](O[C@@H]4[C@@H](C)[C@H](O[C@H]5C[C@@](C)(OC)[C@@H](O)[C@H](C)O5)[C@@H](C)C(=O)O[C@H](CC)[C@@](C)(O)[C@H](O)[C@@H](C)C(=O)[C@H](C)C[C@@]4(C)OC)[C@@H]3O)[C@H]2O)[C@](C)(OC)C[C@@H](C)C(=O)[C@H](C)[C@@H](O)[C@]1(C)O | > 100 | 30.9 | 16.2
CC[C@H]1OC(=O)[C@H](C)[C@@H](O[C@H]2C[C@@](C)(OC)[C@@H](O)[C@H](C)O2)[C@H](C)[C@@H](O[C@@H]2O[C@H](C)C[C@H](N(C)CCN(C)[C@H]3C[C@@H](C)O[C@@H](O[C@@H]4[C@@H](C)[C@H](O[C@H]5C[C@@](C)(OC)[C@@H](O)[C@H](C)O5)[C@@H](C)C(=O)O[C@H](CC)[C@@](C)(O)[C@H](O)[C@@H](C)/C(=N\OCOCCOC)[C@H](C)C[C@@]4(C)O)[C@@H]3O)[C@H]2O)[C@](C)(O)C[C@@H](C)/C(=N/O)[C@H](C)[C@@H](O)[C@]1(C)O | 18.6 | 16.2 | 7.2
CC[C@H]1OC(=O)[C@H](C)[C@@H](O[C@H]2C[C@@](C)(OC)[C@@H](O)[C@H](C)O2)[C@H](C)[C@@H](O[C@@H]2O[C@H](C)C[C@H](N(C)CC(=O)N(C)[C@H]3C[C@@H](C)O[C@@H](O[C@@H]4[C@@H](C)[C@H](O[C@H]5C[C@@](C)(OC)[C@@H](O)[C@H](C)O5)[C@@H](C)C(=O)O[C@H](CC)[C@@](C)(O)[C@H](O)[C@@H](C)/C(=N/OCOCCOC)[C@H](C)C[C@@]4(C)O)[C@@H]3O)[C@H]2O)[C@](C)(O)C[C@@H](C)/C(=N/OCOCCOC)[C@H](C)[C@@H](O)[C@]1(C)O | 28.7 | 33.4 | 13.3
CC[C@H]1OC(=O)[C@H](C)[C@@H](O)[C@H](C)[C@@H](O[C@@H]2O[C@H](C)C[C@H](N(C)CCN(C)[C@H]3C[C@@H](C)O[C@@H](O[C@@H]4[C@@H](C)[C@H](O[C@H]5C[C@@](C)(OC)[C@@H](O)[C@H](C)O5)[C@@H](C)C(=O)O[C@H](CC)[C@@](C)(O)[C@H](O)[C@@H](C)C(=O)[C@H](C)C[C@@]4(C)OC)[C@@H]3O)[C@H]2O)[C@](C)(OC)C[C@@H](C)C(=O)[C@H](C)[C@@H](O)[C@]1(C)O | 97 | > 100 | > 100
CCCCCO/N=C1/[C@H](C)C[C@@](C)(OC)[C@H](O[C@@H]2O[C@H](C)C[C@H](N(C)CCN(C)[C@H]3C[C@@H](C)O[C@@H](O[C@@H]4[C@@H](C)[C@H](O[C@H]5C[C@@](C)(OC)[C@@H](O)[C@H](C)O5)[C@@H](C)C(=O)O[C@H](CC)[C@@](C)(O)[C@H](O)[C@@H](C)/C(=N\OCCCCC)[C@H](C)C[C@@]4(C)OC)[C@@H]3O)[C@H]2O)[C@@H](C)[C@H](O[C@H]2C[C@@](C)(OC)[C@@H](O)[C@H](C)O2)[C@@H](C)C(=O)O[C@H](CC)[C@@](C)(O)[C@H](O)[C@H]1C | > 100 | 54.1 | 30.8
CC[C@H]1OC(=O)[C@H](C)[C@@H](O[C@H]2C[C@@](C)(OC)[C@@H](O)[C@H](C)O2)[C@H](C)[C@@H](O[C@@H]2O[C@H](C)C[C@H](N(C)CCN(C)[C@H]3C[C@@H](C)O[C@@H](O[C@@H]4[C@@H](C)[C@H](O[C@H]5C[C@@](C)(OC)[C@@H](O)[C@H](C)O5)[C@@H](C)C(=O)O[C@H](CC)[C@@](C)(O)[C@H](O)[C@@H](C)[C@@H](O)[C@H](C)C[C@@]4(C)O)[C@@H]3O)[C@H]2O)[C@](C)(O)C[C@@H](C)[C@H](O)[C@H](C)[C@@H](O)[C@]1(C)O | 44.9 | > 100 | 61.6
CC[C@H]1OC(=O)[C@H](C)[C@@H](O[C@H]2C[C@@](C)(OC)[C@@H](O)[C@H](C)O2)[C@H](C)[C@@H](O[C@@H]2O[C@H](C)C[C@H](N(C)CCN(C)[C@H]3C[C@@H](C)O[C@@H](O[C@@H]4[C@@H](C)[C@H](O[C@H]5C[C@@](C)(OC)[C@@H](O)[C@H](C)O5)[C@@H](C)C(=O)O[C@H](CC)[C@@](C)(O)[C@H](O)[C@@H](C)/C(=N\OCOCCOC)[C@H](C)C[C@@]4(C)O)[C@@H]3O)[C@H]2O)[C@](C)(O)C[C@@H](C)/C(=N/OCOCCOC)[C@H](C)[C@@H](O)[C@]1(C)O | 5.5 | 3.5 | > 100
CC[C@H]1OC(=O)[C@H](C)[C@@H](O[C@H]2C[C@@](C)(OC)[C@@H](O)[C@H](C)O2)[C@H](C)[C@@H](O[C@@H]2O[C@H](C)C[C@H](N(C)CCN(C)[C@H]3C[C@@H](C)O[C@@H](O[C@@H]4[C@@H](C)[C@H](O[C@H]5C[C@@](C)(OC)[C@@H](O)[C@H](C)O5)[C@@H](C)C(=O)O[C@H](CC)[C@@](C)(O)[C@H](O)[C@@H](C)/C(=N\OCc5cc(OC)c(OC)c(OC)c5)[C@H](C)C[C@@]4(C)OC)[C@@H]3O)[C@H]2O)[C@](C)(OC)C[C@@H](C)/C(=N/OCc2cc(OC)c(OC)c(OC)c2)[C@H](C)[C@@H](O)[C@]1(C)O | 20.1 | 10.3 | 20
CC[C@H]1OC(=O)[C@H](C)[C@@H](O[C@H]2C[C@@](C)(OC)[C@@H](O)[C@H](C)O2)[C@H](C)[C@@H](O[C@@H]2O[C@H](C)C[C@H](N(C)CCN(C)[C@H]3C[C@@H](C)O[C@@H](O[C@@H]4[C@@H](C)[C@H](O[C@H]5C[C@@](C)(OC)[C@@H](O)[C@H](C)O5)[C@@H](C)C(=O)O[C@H](CC)[C@@](C)(O)[C@H](O)[C@@H](C)/C(=N\OCc5cc(OC)c(OC)c(OC)c5)[C@H](C)C[C@@]4(C)O)[C@@H]3O)[C@H]2O)[C@](C)(OC)C[C@@H](C)C(=O)[C@H](C)[C@@H](O)[C@]1(C)O | 30.2 | 41.5 | 17.4
CC[C@H]1OC(=O)[C@H](C)[C@@H](O[C@H]2C[C@@](C)(OC)[C@@H](O)[C@H](C)O2)[C@H](C)[C@@H](O[C@@H]2O[C@H](C)C[C@H](N(C)CCN(C)[C@H]3C[C@@H](C)O[C@@H](O[C@@H]4[C@@H](C)[C@H](O[C@H]5C[C@@](C)(OC)[C@@H](O)[C@H](C)O5)[C@@H](C)C(=O)O[C@H](CC)[C@@](C)(O)[C@H](O)[C@@H](C)/C(=N\OCOCCOC)[C@H](C)C[C@@]4(C)O)[C@@H]3O)[C@H]2O)[C@](C)(O)C[C@@H](C)[C@H](O)[C@H](C)[C@@H](O)[C@]1(C)O | 37.8 | 21.9 | 45.2
CC[C@H]1OC(=O)[C@H](C)[C@@H](O[C@H]2C[C@@](C)(OC)[C@@H](O)[C@H](C)O2)[C@H](C)[C@@H](O[C@@H]2O[C@H](C)C[C@H](N(C)CCN(C)[C@H]3C[C@@H](C)O[C@@H](O[C@@H]4[C@@H](C)[C@H](O[C@H]5C[C@@](C)(OC)[C@@H](O)[C@H](C)O5)[C@@H](C)C(=O)O[C@H](CC)[C@@](C)(O)[C@H](O)[C@@H](C)C(=O)[C@H](C)C[C@@]4(C)OC)[C@@H]3O)[C@H]2O)[C@](C)(O)C[C@@H](C)[C@H](N)[C@H](C)[C@@H](O)[C@]1(C)O | 26.4 | 17.8 | 57.8
CC[C@H]1OC(=O)[C@H](C)[C@@H](O)[C@H](C)[C@@H](O[C@@H]2O[C@H](C)C[C@H](N(C)CCN(C)[C@H]3C[C@@H](C)O[C@@H](O[C@@H]4[C@@H](C)[C@H](O)[C@@H](C)C(=O)O[C@H](CC)[C@@](C)(O)[C@H](O)[C@@H](C)C(=O)[C@H](C)C[C@@]4(C)OC)[C@@H]3O)[C@H]2O)[C@](C)(OC)C[C@@H](C)C(=O)[C@H](C)[C@@H](O)[C@]1(C)O | > 100 | > 100 | > 100
